Results on one molecule are retold here after patent US11633370B2, “Use of scavengers of reactive gamma-ketoaldehydes to extend cell lifespan and healthspan” (Vanderbilt University, priority 2016, dated 2023).

In one experiment the test system is N2 WT C. elegans. Description: Longevity assay, wild-type N2 worms. It counts as in vivo. The following applies: for increase in median lifespan: continuous from Day 1 of adulthood until natural death, versus 16 days; for median lifespan: control 16 days. Here is the method: (§1) C. elegans strains were cultured at 20° C. on standard nematode growth media (NGM) agar plates seeded with Escherichia coli strain NA22. The following strains were used in this work: wild-type C. elegans Bristol strain (N2), sir-2.1(ok434) IV, F19F10.5(ok888) V, and daf-16(mu86). Strains were obtained from the Caenorhabditis Genetics Center (University of Minnesota, St. Paul, Minn.). For generating cultures of 15-day-old (Day 15) adult worms, synchronized late-stage L4s/early young adult worms were transferred to peptone enriched 15 cm plates containing UV-irradiated OP50 E. coli and 0.12 mM 5-fluoro-2′-deoxyuridine (FUDR) to inhibit progeny production[88] with or without drug until harvest.
Nematodes grown on NGM-agar plates containing 0.5% peptone, were harvested, and eggs were isolated by alkaline hypochlorite with 0.5 N NaOH, 1% hypochlorite; 8 min at 23° C. The recovered eggs were rinsed in M9 buffer and placed on fresh agar plates seeded with E. coli strain OP50 and maintained at 20° C. until late-L4/young adult stage. After the late L4/young adult molt, worms were transferred to peptone enriched 15 cm plates containing 0.12 mM FUDR, OP50 E. coli, and varying concentrations of SA. Salicylamine drug plates were made fresh before transfer by spreading SA on top of the agar and plates were allowed to dry. E. coli strain OP50 was exposed to UV radiation for 30 minutes to kill the bacteria before seeding onto the SA-FUDR NGM agar plates. Worms were exposed to SA throughout its life until harvest by transferring worms to fresh SA-FUDR-OP50 NGM plates every other day.
Survival cultures were grown on 60-mm agar plates; after the late-stage L4/young adult molt, approximately 100 adults were transferred onto SA-OP50-seeded NGM plates. Salicylamine drug plates were made fresh before transfer by spreading SA on top of the agar. Plates were allowed to dry before seeding with UV-irradiated OP50 bacteria. Worms were maintained at 20° C. and live worms were counted during transfer to freshly made SA-OP50-NGM agar plates every 2-3 days. Survival was scored as movement upon slight touch with the platinum wire. Worms were maintained until death.

For experiment [1] the following is noted: compared with pyridoxamine (PM); cited from earlier work.
The subject of another experiment is MnSOD. Description: Western blot of acetyl-Lys 122 MnSOD. As to conditions: 500 μM SA, day 15; WT N2 compared to VC199 treated with the same dose; P>0.05. It counts as in vivo, C. elegans. From the text:
One of the major stimuli for activation of sirtuins is oxidative stress. […] Indeed, the mitochondrial antioxidant manganese superoxide dismutase (MnSOD) has been identified as one of the major protein targets that is deacetylated by sirtuin isoforms, with deacetylation enhancing the enzymatic activity of MnSOD [60]. If SA indeed preserves SIR-2.1 enzymatic function in vivo, the present inventors hypothesized that SA treatment would dose-dependently decrease biomarkers of oxidant injury in a SIR-2.1-dependent manner. To quantify oxidant injury, the present inventors measured F3-isoprostanes (F3-IsoPs). F3-IsoPs are the products of free radical-mediated peroxidation of eicosapentaenoic acid (EPA), and are known to be a highly sensitive and accurate marker of oxidative damage in Caenorhabditis elegans. F3—IsoPs were collected from WT N2 and from VC199 (SIR-2.1 deficient strain) nematodes grown on OP50-NGM agar plates containing increasing concentrations of SA from Day 1 of adulthood until collection at Day 15. […] To further characterize SA's ability to preserve SIR-2.1 function, the present inventors assessed acetylation of MnSOD at Lys 122.
Day 15 adult worms grown on FUDR containing SA-OP50-seeded NGM plates were harvested in M9 medium, followed by floatation on an ice-cold 60% w/v sucrose gradient to segregate clean bacteria-free adult worms from bacterial debris. […]
A general note: Immunoblotting shows a protein as a band on a membrane.

The test system of the next experiment is VC199 [sir-2.1(ok434)]. Description: Longevity assay, non-functional SIR-2.1 mutant. The format is in vivo, C. elegans. The following applies: 0 μM SA 16 days, p=0.70. How it is done:
A nematode strain carrying a non-functional SIR-2.1 mutation, VC199 [sir-2.1(ok434)] was treated with the same concentrations of SA as were used in lifespan experiments with WT nematodes. Starting at day 1 of adulthood, SIR-2.1 mutants were grown on SA-coated OP50-seeded NGM plates. SIR-2.1 mutant worms were transferred to freshly made SA-OP50-NGM agar plates every 2 days and survival was assessed using a platinum wire until all worms died; survival was scored as movement upon slight touch with the platinum wire (FIG. 3B). When SA was administered to the VC199 strain, the effect of extending median lifespan that had been observed in the N2 strain was entirely abolished (FIG. 3C; VC199 median lifespan: 16 days, 0 μM SA; 15 days, 50 μM SA; 15 days, 100 μM SA; 15 days, 500 μM SA; p=0.70).
as §1
Nematodes grown on NGM-agar plates containing 0.5% peptone, were harvested, and eggs were isolated by alkaline hypochlorite with 0.5 N NaOH, 1% hypochlorite; 8 min at 23° C. […]
Survival cultures were grown on 60-mm agar plates; after the late-stage L4/young adult molt, approximately 100 adults were transferred onto SA-OP50-seeded NGM plates. […] Worms were maintained at 20° C. and live worms were counted during transfer to freshly made SA-OP50-NGM agar plates every 2-3 days. Survival was scored as movement upon slight touch with the platinum wire. […]

Regarding `NCc1ccccc1O` [SA, salicylamine], the “increase in median lifespan” value is 18% in the experiment with N2 WT C. elegans (50 μM SA); 32% with N2 WT C. elegans (100 μM SA, p<0.05); 56% in the experiment on N2 WT C. elegans (500 μM SA, p<0.01). The median lifespan in the experiment with N2 WT C. elegans (50 μM SA) is given as 19 days; in the experiment on N2 WT C. elegans (100 μM SA), 21 days; with N2 WT C. elegans (500 μM SA), 25 days; in the experiment on VC199 [sir-2.1(ok434)] (50 μM SA) it was 15 days; in the experiment with VC199 [sir-2.1(ok434)] (100 μM SA), 15 days; with VC199 [sir-2.1(ok434)] (500 μM SA) it was 15 days. Besides, the “potency and selectivity for scavenging isoketals” value in experiment [1] was “similarly potent and as selective as PM”. The “acetyl-Lys 122 in MnSOD” value with MnSOD is “trend toward lower acetyl-Lys 122”.
